# System: cocaine-induced motor activity
# Assay: Cocaine-induced behavior and baseline motor activity, same animal system (haloperidol)
# Format: in vivo
# Conditions: for Effect on baseline motor activity in the absence of cocaine (in words): same animal system as Ex. No. 504, cocaine-free animals
# Procedure: Cocaine was administered to mice or rats and its effect in stimulating motor activity was quantified. The cocaine-stimulated motor activity was used to evaluate the effects of the sigma receptor antagonist in reducing this enhanced motor stimulation, i.e., counteracting the pharmacological effect of cocaine in the animal.
smiles,measurement,setting,value
O=C(CCCN1CCC(O)(c2ccc(Cl)cc2)CC1)c1ccc(F)cc1 [haloperidol],Effect on cocaine-induced behavior (in words),same animal system as Ex. No. 504,did not specifically inhibit cocaine-induced behavior
same,Effect on baseline motor activity in the absence of cocaine (in words),,significantly depressed baseline motor activity
same,Effect on baseline motor activity in the absence of cocaine (in words),listed as Haloperidol,adverse non-selective attenuation of normal motor activity
